# Assay results from patent US20240409585A1, “MACROCYCLIC IMMUNOMODULATORS” (priority 2021, published 2024).
# Bridge positions count the residues as written; N and C are the ends. Square brackets hold non-standard residues; d marks the D form. Peptide text beside a SMILES is read from it. * marks the point of attachment. Tyr(3-NO2) = N[C@@H](Cc1ccc(O)c([N+](=O)[O-])c1)C(=O)O; Phe(4-COOH) = N[C@@H](Cc1ccc(C(=O)O)cc1)C(=O)O; Phe(4-CH2NH2) = NCc1ccc(C[C@H](N)C(=O)O)cc1; Bip = N[C@@H](Cc1ccc(-c2ccccc2)cc1)C(=O)O; Phe(3-CN) = N#Cc1cccc(C[C@H](N)C(=O)O)c1; Phe(3-Cl) = N[C@@H](Cc1cccc(Cl)c1)C(=O)O; Phe(3-OMe) = COc1cccc(C[C@H](N)C(=O)O)c1; Phe(3-F) = N[C@@H](Cc1cccc(F)c1)C(=O)O; 2Pal = N[C@@H](Cc1ccccn1)C(=O)O; 3Pal = N[C@@H](Cc1cccnc1)C(=O)O; 4Pal = N[C@@H](Cc1ccncc1)C(=O)O; Cit = NC(=O)NCCC[C@H](N)C(=O)O; Carboxymethyl = O=C(O)C*; NMeA = CN[C@@H](C)C(=O)O; Dab = NCC[C@H](N)C(=O)O
# Biological target: T1, PE-labeled human PD-L1-Ig binding to Jurkat cell line over-expressing human PD-1 (Jurkat-PD-1) (Homo sapiens, UniProt Q15116)
# T1 construct: expressed in transfected cells; host or cells: Jurkat
# T1 sequence (Q15116 25-288): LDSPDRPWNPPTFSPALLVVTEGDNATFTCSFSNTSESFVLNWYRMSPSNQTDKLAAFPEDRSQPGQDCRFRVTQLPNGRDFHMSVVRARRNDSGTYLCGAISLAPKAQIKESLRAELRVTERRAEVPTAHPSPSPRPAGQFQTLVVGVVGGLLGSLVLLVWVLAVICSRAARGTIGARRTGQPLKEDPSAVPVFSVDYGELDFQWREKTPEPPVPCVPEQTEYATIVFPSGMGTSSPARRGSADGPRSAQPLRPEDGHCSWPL
# Assay: Jurkat-PD-1 Cell Binding High-Content Screening Assay (CBA): Method 1
# Settings: Jurkat-hPD-1 cells, PE-labeled PD-L1-Ig 20 nM final; read-out: Jurkat HPDL1 PD1 IC50 (uM) (Method 1)
row,SMILES,IC50 [µM]
1,CC(C)C[C@@H]1NC(=O)[C@H](CCN)NC(=O)[C@@H](CC(C)C)NC(=O)[C@H](C)N(C)C(=O)[C@H](CCCNC(N)=O)NC(=O)[C@H](Cc2ccc(-c3ccccc3)cc2)NC(=O)[C@H](C(C)C)NC(=O)[C@H](Cc2c[nH]c3ccccc23)NC(=O)[C@H](CC(=O)O)NC(=O)[C@H](Cc2cccc(F)c2)NC(=O)[C@H](CC(N)=O)NC(=O)CSC[C@@H](C(=O)N[C@@H](C)C(N)=O)NC(=O)[C@H]([C@@H](C)O)NC(=O)[C@H](C(C)C)NC1=O [Compound 1315] ({CH2CO}-N[Phe(3-F)]DWV[Bip][Cit][NMeA][dL][Dab]LVTCA-NH2; thioether N-14),0.06
2,CC(C)C[C@@H]1NC(=O)[C@H](CCN)NC(=O)[C@@H](CC(C)C)NC(=O)[C@H](C)N(C)C(=O)[C@H](CCCNC(=N)N)NC(=O)[C@H](Cc2ccc(-c3ccccc3)cc2)NC(=O)[C@H](C(C)C)NC(=O)[C@H](Cc2c[nH]c3ccccc23)NC(=O)[C@H](CC(=O)O)NC(=O)[C@H](Cc2cccc(Cl)c2)NC(=O)[C@H](CC(N)=O)NC(=O)CSC[C@@H](C(=O)N[C@@H](C)C(N)=O)NC(=O)[C@H]([C@@H](C)O)NC(=O)[C@H](C(C)C)NC1=O [Compound 1316] ({CH2CO}-N[Phe(3-Cl)]DWV[Bip]R[NMeA][dL][Dab]LVTCA-NH2; thioether N-14),0.05
3,CC(C)C[C@@H]1NC(=O)[C@H](CCN)NC(=O)[C@@H](CC(C)C)NC(=O)[C@H](C)N(C)C(=O)[C@H](CCCNC(N)=O)NC(=O)[C@H](Cc2ccc(-c3ccccc3)cc2)NC(=O)[C@H](C(C)C)NC(=O)[C@H](Cc2c[nH]c3ccccc23)NC(=O)[C@H](CC(=O)O)NC(=O)[C@H](Cc2ccc(O)c([N+](=O)[O-])c2)NC(=O)[C@H](CC(N)=O)NC(=O)CSC[C@@H](C(=O)N[C@@H](C)C(N)=O)NC(=O)[C@H]([C@@H](C)O)NC(=O)[C@H](C(C)C)NC1=O [Compound 1319] ({CH2CO}-N[Tyr(3-NO2)]DWV[Bip][Cit][NMeA][dL][Dab]LVTCA-NH2; thioether N-14),0.04
4,CC(C)C[C@@H]1NC(=O)[C@H](CCN)NC(=O)[C@@H](CC(C)C)NC(=O)[C@H](C)N(C)C(=O)[C@H](CCCNC(N)=O)NC(=O)[C@H](Cc2ccc(-c3ccccc3)cc2)NC(=O)[C@H](C(C)C)NC(=O)[C@H](Cc2c[nH]c3ccccc23)NC(=O)[C@H](CC(=O)O)NC(=O)[C@H](Cc2ccc(OCC(=O)O)cc2)NC(=O)[C@H](CC(N)=O)NC(=O)CSC[C@@H](C(=O)N[C@@H](C)C(N)=O)NC(=O)[C@H]([C@@H](C)O)NC(=O)[C@H](C(C)C)NC1=O [Compound 1321] ({CH2CO}-NY(Carboxymethyl)DWV[Bip][Cit][NMeA][dL][Dab]LVTCA-NH2; thioether N-14),0.08
5,CC(C)C[C@@H]1NC(=O)[C@H](CCN)NC(=O)[C@@H](CC(C)C)NC(=O)[C@H](C)N(C)C(=O)[C@H](CCCNC(N)=O)NC(=O)[C@H](Cc2ccc(-c3ccccc3)cc2)NC(=O)[C@H](C(C)C)NC(=O)[C@H](Cc2c[nH]c3ccccc23)NC(=O)[C@H](CC(=O)O)NC(=O)[C@H](Cc2ccc(O)cc2)NC(=O)[C@H](Cc2ccccn2)NC(=O)CSC[C@@H](C(=O)N[C@@H](C)C(N)=O)NC(=O)[C@H]([C@@H](C)O)NC(=O)[C@H](C(C)C)NC1=O [Compound 1327] ({CH2CO}-[2Pal]YDWV[Bip][Cit][NMeA][dL][Dab]LVTCA-NH2; thioether N-14),0.08
6,CC(C)C[C@@H]1NC(=O)[C@H](CCN)NC(=O)[C@@H](CC(C)C)NC(=O)[C@H](C)N(C)C(=O)[C@H](CCCNC(N)=O)NC(=O)[C@H](Cc2ccc(-c3ccccc3)cc2)NC(=O)[C@H](C(C)C)NC(=O)[C@H](Cc2c[nH]c3ccccc23)NC(=O)[C@H](CC(=O)O)NC(=O)[C@H](Cc2ccc(OCC(=O)O)cc2)NC(=O)[C@H](Cc2ccccn2)NC(=O)CSC[C@@H](C(=O)N[C@@H](C)C(N)=O)NC(=O)[C@H]([C@@H](C)O)NC(=O)[C@H](C(C)C)NC1=O [Compound 1329] ({CH2CO}-[2Pal]Y(Carboxymethyl)DWV[Bip][Cit][NMeA][dL][Dab]LVTCA-NH2; thioether N-14),0.19

# The remaining lines, values ahead:
row,IC50 [µM],SMILES
1,0.04,COc1cccc(C[C@@H]2NC(=O)[C@H](CC(N)=O)NC(=O)CSC[C@@H](C(=O)N[C@@H](C)C(N)=O)NC(=O)[C@H]([C@@H](C)O)NC(=O)[C@H](C(C)C)NC(=O)[C@H](CC(C)C)NC(=O)[C@H](CCN)NC(=O)[C@@H](CC(C)C)NC(=O)[C@H](C)N(C)C(=O)[C@H](CCCNC(N)=O)NC(=O)[C@H](Cc3ccc(-c4ccccc4)cc3)NC(=O)[C@H](C(C)C)NC(=O)[C@H](Cc3c[nH]c4ccccc34)NC(=O)[C@H](CC(=O)O)NC2=O)c1 [Compound 1313] ({CH2CO}-N[Phe(3-OMe)]DWV[Bip][Cit][NMeA][dL][Dab]LVTCA-NH2; thioether N-14)
2,0.04,CC(C)C[C@@H]1NC(=O)[C@H](CCN)NC(=O)[C@@H](CC(C)C)NC(=O)[C@H](C)N(C)C(=O)[C@H](CCCNC(N)=O)NC(=O)[C@H](Cc2ccc(-c3ccccc3)cc2)NC(=O)[C@H](C(C)C)NC(=O)[C@H](Cc2c[nH]c3ccccc23)NC(=O)[C@H](CC(=O)O)NC(=O)[C@H](Cc2cccc(C#N)c2)NC(=O)[C@H](CC(N)=O)NC(=O)CSC[C@@H](C(=O)N[C@@H](C)C(N)=O)NC(=O)[C@H]([C@@H](C)O)NC(=O)[C@H](C(C)C)NC1=O [Compound 1314] ({CH2CO}-N[Phe(3-CN)]DWV[Bip][Cit][NMeA][dL][Dab]LVTCA-NH2; thioether N-14)
3,0.04,CC(C)C[C@@H]1NC(=O)[C@H](CCN)NC(=O)[C@@H](CC(C)C)NC(=O)[C@H](C)N(C)C(=O)[C@H](CCCNC(N)=O)NC(=O)[C@H](Cc2ccc(-c3ccccc3)cc2)NC(=O)[C@H](C(C)C)NC(=O)[C@H](Cc2c[nH]c3ccccc23)NC(=O)[C@H](CC(=O)O)NC(=O)[C@H](Cc2ccc(C(=O)O)cc2)NC(=O)[C@H](CC(N)=O)NC(=O)CSC[C@@H](C(=O)N[C@@H](C)C(N)=O)NC(=O)[C@H]([C@@H](C)O)NC(=O)[C@H](C(C)C)NC1=O [Compound 1317] ({CH2CO}-N[Phe(4-COOH)]DWV[Bip][Cit][NMeA][dL][Dab]LVTCA-NH2; thioether N-14)
4,0.02,CC(C)C[C@@H]1NC(=O)[C@H](CCN)NC(=O)[C@@H](CC(C)C)NC(=O)[C@H](C)N(C)C(=O)[C@H](CCCNC(N)=O)NC(=O)[C@H](Cc2ccc(-c3ccccc3)cc2)NC(=O)[C@H](C(C)C)NC(=O)[C@H](Cc2c[nH]c3ccccc23)NC(=O)[C@H](CC(=O)O)NC(=O)[C@H](Cc2cccnc2)NC(=O)[C@H](CC(N)=O)NC(=O)CSC[C@@H](C(=O)N[C@@H](C)C(N)=O)NC(=O)[C@H]([C@@H](C)O)NC(=O)[C@H](C(C)C)NC1=O [Compound 1318] ({CH2CO}-N[3Pal]DWV[Bip][Cit][NMeA][dL][Dab]LVTCA-NH2; thioether N-14)
5,0.02,CC(C)C[C@@H]1NC(=O)[C@H](CCN)NC(=O)[C@@H](CC(C)C)NC(=O)[C@H](C)N(C)C(=O)[C@H](CCCNC(N)=O)NC(=O)[C@H](Cc2ccc(-c3ccccc3)cc2)NC(=O)[C@H](C(C)C)NC(=O)[C@H](Cc2c[nH]c3ccccc23)NC(=O)[C@H](CC(=O)O)NC(=O)[C@H](Cc2ccncc2)NC(=O)[C@H](CC(N)=O)NC(=O)CSC[C@@H](C(=O)N[C@@H](C)C(N)=O)NC(=O)[C@H]([C@@H](C)O)NC(=O)[C@H](C(C)C)NC1=O [Compound 1320] ({CH2CO}-N[4Pal]DWV[Bip][Cit][NMeA][dL][Dab]LVTCA-NH2; thioether N-14)
6,0.02,CC(C)C[C@@H]1NC(=O)[C@H](CCN)NC(=O)[C@@H](CC(C)C)NC(=O)[C@H](C)N(C)C(=O)[C@H](CCCNC(N)=O)NC(=O)[C@H](Cc2ccc(-c3ccccc3)cc2)NC(=O)[C@H](C(C)C)NC(=O)[C@H](Cc2c[nH]c3ccccc23)NC(=O)[C@H](CC(=O)O)NC(=O)[C@H](Cc2ccc(CN)cc2)NC(=O)[C@H](CC(N)=O)NC(=O)CSC[C@@H](C(=O)N[C@@H](C)C(N)=O)NC(=O)[C@H]([C@@H](C)O)NC(=O)[C@H](C(C)C)NC1=O [Compound 1322] ({CH2CO}-N[Phe(4-CH2NH2)]DWV[Bip][Cit][NMeA][dL][Dab]LVTCA-NH2; thioether N-14)
7,0.03,CC(C)C[C@@H]1NC(=O)[C@H](CCN)NC(=O)[C@@H](CC(C)C)NC(=O)[C@H](C)N(C)C(=O)[C@H](CCCNC(N)=O)NC(=O)[C@H](Cc2ccc(-c3ccccc3)cc2)NC(=O)[C@H](C(C)C)NC(=O)[C@H](Cc2c[nH]c3ccccc23)NC(=O)[C@H](CC(=O)O)NC(=O)[C@H](Cc2ccc(O)cc2)NC(=O)[C@H](Cc2ccc(OCC(=O)O)cc2)NC(=O)CSC[C@@H](C(=O)N[C@@H](C)C(N)=O)NC(=O)[C@H]([C@@H](C)O)NC(=O)[C@H](C(C)C)NC1=O [Compound 1324] ({CH2CO}-Y(Carboxymethyl)YDWV[Bip][Cit][NMeA][dL][Dab]LVTCA-NH2; thioether N-14)
8,0.02,CC(C)C[C@@H]1NC(=O)[C@H](CCN)NC(=O)[C@@H](CC(C)C)NC(=O)[C@H](C)N(C)C(=O)[C@H](CCCNC(N)=O)NC(=O)[C@H](Cc2ccc(-c3ccccc3)cc2)NC(=O)[C@H](C(C)C)NC(=O)[C@H](Cc2c[nH]c3ccccc23)NC(=O)[C@H](CC(=O)O)NC(=O)[C@H](Cc2ccc(O)cc2)NC(=O)[C@H](Cc2ccc(C(=O)O)cc2)NC(=O)CSC[C@@H](C(=O)N[C@@H](C)C(N)=O)NC(=O)[C@H]([C@@H](C)O)NC(=O)[C@H](C(C)C)NC1=O [Compound 1326] ({CH2CO}-[Phe(4-COOH)]YDWV[Bip][Cit][NMeA][dL][Dab]LVTCA-NH2; thioether N-14)
9,0.01,CC(C)C[C@@H]1NC(=O)[C@H](CCN)NC(=O)[C@@H](CC(C)C)NC(=O)[C@H](C)N(C)C(=O)[C@H](CCCNC(N)=O)NC(=O)[C@H](Cc2ccc(-c3ccccc3)cc2)NC(=O)[C@H](C(C)C)NC(=O)[C@H](Cc2c[nH]c3ccccc23)NC(=O)[C@H](CC(=O)O)NC(=O)[C@H](Cc2ccc(C(=O)O)cc2)NC(=O)[C@H](Cc2ccncc2)NC(=O)CSC[C@@H](C(=O)N[C@@H](C)C(N)=O)NC(=O)[C@H]([C@@H](C)O)NC(=O)[C@H](C(C)C)NC1=O [Compound 1328] ({CH2CO}-[4Pal][Phe(4-COOH)]DWV[Bip][Cit][NMeA][dL][Dab]LVTCA-NH2; thioether N-14)
